Laboratory results published in patent US20230167467A1, “METHODS AND COMPOSITIONS FOR THE PRODUCTION OF ISOBUTENE” (University of Alaska Anchorage, priority 2020, published 2023).

System: Engineered strains of E. coli
Type: cell-based
[1] = after solvent exposure, vs positive control

In the case of `C=CC(C)CC` (stereo not drawn) [3-methyl-1-pentene], the “expression of acid resistance genes (gad, adi families)” value is reported as “downregulated”, the “expression of chaperone proteins groLS, spy, and dnaJK” value is reported as “highly upregulated” and the “expression of dihydroxyacetone kinase genes dhaKLM” value is reported as “upregulated”. For the same compound, the “expression of galactitol metabolism genes gatABD” value was “upregulated”, the “expression of heat shock proteins and chaperones hslJORUV” value was “increased” and the “expression of ibpAB and clpAB (protein protection and repair)” value was “increased”. The “expression of marABC (multiple antibiotic resistance)” value was “upregulated”, the “expression of nitrate reductase genes narGHJKP” value was “upregulated” and the “expression of phage shock genes pspABCDE” value was “highly upregulated”. The “change in expression of gene adiA” value [1] was −3.34 ± 0.90, the “change in expression of gene adiC” value [1] was −4.45 ± 1.13 and the “change in expression of gene adiY” value [1] was −4.27 ± 0.72. For the same compound, the “change in expression of gene bhsA” value [1] was 4.75 ± 0.60, the “change in expression of gene bssR” value [1] was −0.03 ± 0.44 and the “change in expression of gene bssS” value [1] was 5.81 ± 0.84. For the same compound, the “change in expression of gene clpA” value [1] was 3.44 ± 0.63, the “change in expression of gene clpB” value [1] was 6.13 ± 0.69 and the “change in expression of gene clpP” value [1] was 2.17 ± 0.59. The “change in expression of gene coaA” value [1] was −1.75 ± 0.90, the “change in expression of gene coaD” value [1] was 0.47 ± 0.93 and the “change in expression of gene cspA” value [1] was −4.30 ± 0.58. For the same compound, the “change in expression of gene cspB” value [1] was −3.27 ± 1.33, the “change in expression of gene cspC” value [1] was −1.52 ± 0.93 and the “change in expression of gene cspD” value [1] was 3.11 ± 0.58. For the same compound, the “change in expression of gene cspE” value [1] was 0.28 ± 0.63, the “change in expression of gene cspF” value [1] was −2.49 ± 1.08 and the “change in expression of gene dhaK” value [1] was 3.88 ± 0.59. For the same compound, the “change in expression of gene dhaL” value [1] was 3.17 ± 0.63, the “change in expression of gene dnaJ” value [1] was 6.43 ± 0.69 and the “change in expression of gene dnaK” value [1] was 4.74 ± 0.66. For the same compound, the “change in expression of gene fabA” value [1] was −0.23 ± 0.77, the “change in expression of gene fabB” value [1] was 2.75 ± 0.66 and the “change in expression of gene fabD” value [1] was −0.87 ± 0.53. The “change in expression of gene flgA” value [1] was −2.55 ± 1.64, the “change in expression of gene flgB” value [1] was −5.95 ± 1.74 and the “change in expression of gene flgC” value [1] was −5.29 ± 2.06. The “change in expression of gene flgD” value [1] was −5.38 ± 2.00, the “change in expression of gene flgE” value [1] was −4.38 ± 1.24 and the “change in expression of gene flgF” value [1] was −3.45 ± 1.66. The “change in expression of gene flgG” value [1] was −4.32 ± 1.57, the “change in expression of gene flgH” value [1] was −3.08 ± 1.80 and the “change in expression of gene gabD” value [1] was −0.39 ± 1.37. For the same compound, the “change in expression of gene gabP” value [1] was −0.55 ± 1.33, the “change in expression of gene gabT” value [1] was −0.74 ± 1.35 and the “change in expression of gene gadA” value [1] was −3.97 ± 0.90. For the same compound, the “change in expression of gene gadB” value [1] was −2.34 ± 0.85, the “change in expression of gene gadC” value [1] was −1.88 ± 0.83 and the “change in expression of gene gadE” value [1] was −5.01 ± 0.68. For the same compound, the “change in expression of gene gadW” value [1] was −5.73 ± 1.17, the “change in expression of gene gadX” value [1] was −2.89 ± 0.58 and the “change in expression of gene gadY” value [1] was −4.81 ± 0.90. For the same compound, the “change in expression of gene glpA” value [1] was 7.04 ± 0.87, the “change in expression of gene glpB” value [1] was 4.86 ± 0.63 and the “change in expression of gene glpC” value [1] was 5.64 ± 0.80. For the same compound, the “change in expression of gene groL” value [1] was 4.37 ± 0.57, the “change in expression of gene groS” value [1] was 4.22 ± 0.50 and the “change in expression of gene hchA” value [1] was 2.03 ± 0.62. For the same compound, the “change in expression of gene hslJ” value [1] was 1.02 ± 0.67, the “change in expression of gene hslO” value [1] was 3.42 ± 0.64 and the “change in expression of gene hslR” value [1] was 3.19 ± 0.66. For the same compound, the “change in expression of gene hslU” value [1] was 3.91 ± 0.56, the “change in expression of gene hslV” value [1] was 3.66 ± 0.61 and the “change in expression of gene ibpA” value [1] was 9.84 ± 1.21. The “change in expression of gene ibpB” value [1] was 11.65 ± 1.50, the “change in expression of gene lhgO” value [1] was −1.08 ± 1.80 and the “change in expression of gene lipA” value [1] was 0.62 ± 0.61. For the same compound, the “change in expression of gene lipB” value [1] was 1.26 ± 0.64, the “change in expression of gene narG” value [1] was 0.67 ± 0.66 and the “change in expression of gene narH” value [1] was −0.40 ± 0.65. The “change in expression of gene narI” value [1] was −2.41 ± 1.20, the “change in expression of gene narJ” value [1] was −0.67 ± 0.73 and the “change in expression of gene narK” value [1] was 0.15 ± 0.90. For the same compound, the “change in expression of gene potA” value [1] was −2.42 ± 0.82, the “change in expression of gene potB” value [1] was −1.56 ± 1.33 and the “change in expression of gene potC” value [1] was −0.61 ± 1.22. The “change in expression of gene pspA” value [1] was 10.50 ± 0.55, the “change in expression of gene pspB” value [1] was 8.15 ± 0.68 and the “change in expression of gene rpoA” value [1] was 0.25 ± 0.44. The “change in expression of gene rpoB” value [1] was 0.39 ± 0.40, the “change in expression of gene rpoC” value [1] was 0.99 ± 0.39 and the “change in expression of gene rpoD” value [1] was 3.68 ± 0.70. The “change in expression of gene rpoE” value [1] was −2.04 ± 0.63, the “change in expression of gene rpoH” value [1] was 0.68 ± 0.52 and the “change in expression of gene rpoN” value [1] was −1.52 ± 0.50. The “change in expression of gene rpoS” value [1] was −0.17 ± 0.48, the “change in expression of gene rpoZ” value [1] was −1.17 ± 0.55 and the “change in expression of gene spy” value [1] was 3.35 ± 0.88. The “change in expression of gene tatA” value [1] was −1.50 ± 0.52, the “change in expression of gene tatB” value [1] was −1.06 ± 0.60 and the “change in expression of gene tatC” value [1] was −1.33 ± 1.12. The “change in expression of gene tatD” value [1] was −2.62 ± 1.19, the “change in expression of gene tatE” value [1] was −0.18 ± 0.65 and the “number of genes with significant changes in expression” value (vs control, Bon Ferroni corrected p-value<0.05) was 540 genes.
